Results taken from patent US9227971B2, “Pyrazolo[1,5-a]pyrimidine compounds as mTOR inhibitors” (Merck Sharp & Dohme Corp., priority 2010, dated 2016).
Like-named read-outs stand apart in the source and are kept apart here.

Assays:
[1] = system: phosphorylated 4E-BP1 Thr37/46 (p4E-BP1 Thr37/46), mTORC1 activity, PC3 cells; test: mTOR target engagement assay, immunofluorescent cell-based, p4E-BP1 Thr37/46 readout (mTORC1 activity)
Summary of the method: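 Cell-based immunofluorescence in PC3 cells: serially diluted compounds (0.25% DMSO, 5% FBS) applied for ninety minutes at 37° C before fixation and overnight 4° C staining of p4E-BP1 Thr37/46. Untreated DMSO wells set maximal phosphorylation; IC50 obtained by logistic fitting.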

[2] = target: human mTOR enzyme (Homo sapiens, UniProt P42345); test: mTOR kinase assay (HTRF mTOR enzyme assay); format: biochemical; conditions: 5 μM ATP, 0.2 μM GST-S6K, one hour at 30° C.
Sequence of human mTOR enzyme (P42345 1360-2549 limits assumed): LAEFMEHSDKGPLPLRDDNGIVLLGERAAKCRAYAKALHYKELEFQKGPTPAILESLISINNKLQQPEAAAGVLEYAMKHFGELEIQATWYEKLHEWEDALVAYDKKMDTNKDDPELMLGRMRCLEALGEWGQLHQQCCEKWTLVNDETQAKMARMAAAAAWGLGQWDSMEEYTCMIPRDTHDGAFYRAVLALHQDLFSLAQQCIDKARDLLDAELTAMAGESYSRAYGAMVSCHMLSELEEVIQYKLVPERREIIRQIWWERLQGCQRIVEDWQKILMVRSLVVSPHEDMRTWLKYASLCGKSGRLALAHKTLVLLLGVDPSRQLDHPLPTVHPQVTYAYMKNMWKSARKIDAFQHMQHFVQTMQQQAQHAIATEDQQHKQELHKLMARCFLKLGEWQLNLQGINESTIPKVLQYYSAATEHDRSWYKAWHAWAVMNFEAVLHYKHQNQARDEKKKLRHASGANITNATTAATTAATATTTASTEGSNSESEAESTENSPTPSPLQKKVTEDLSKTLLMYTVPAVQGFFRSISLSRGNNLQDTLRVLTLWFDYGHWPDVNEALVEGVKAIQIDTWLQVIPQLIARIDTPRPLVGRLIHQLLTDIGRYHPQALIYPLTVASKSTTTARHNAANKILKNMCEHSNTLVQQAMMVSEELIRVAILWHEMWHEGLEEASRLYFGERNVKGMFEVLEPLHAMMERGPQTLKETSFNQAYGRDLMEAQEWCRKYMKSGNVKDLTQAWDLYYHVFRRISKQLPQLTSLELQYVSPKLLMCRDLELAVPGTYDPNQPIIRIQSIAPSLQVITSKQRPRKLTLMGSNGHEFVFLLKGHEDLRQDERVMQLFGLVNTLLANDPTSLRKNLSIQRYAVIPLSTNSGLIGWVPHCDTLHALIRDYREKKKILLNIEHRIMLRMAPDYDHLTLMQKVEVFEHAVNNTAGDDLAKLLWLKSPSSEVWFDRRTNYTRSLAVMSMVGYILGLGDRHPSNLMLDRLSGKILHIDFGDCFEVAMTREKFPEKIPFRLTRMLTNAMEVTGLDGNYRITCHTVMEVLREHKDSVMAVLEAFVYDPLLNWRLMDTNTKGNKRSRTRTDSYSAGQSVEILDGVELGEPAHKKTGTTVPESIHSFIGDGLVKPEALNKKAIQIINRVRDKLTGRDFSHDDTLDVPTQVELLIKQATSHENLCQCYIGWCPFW
Procedure: An HTRF mTOR enzyme assay was developed to assess the compounds' inhibitory activity. The mTOR assay buffer contained 10 mM Hepes (pH 7.4), 50 mM NaCl, 100 μg/ml BSA, 50 mM B-glycerophosphate, 10 mM MnCl2 and 0.5 mM DTT. […] 20 ng of human mTOR enzyme (<5% pure was preincubated with the compound for 10 minutes followed by the addition of 5 μM ATP and 0.2 μM GST-S6K (Zhang et al., Protein Expression and Purification 46, pp 414-420 (2006)). The reaction was incubated for one hour at 30° C. Anti phospho p70-S6K(Thr389) (˜1.7 ng/well, anti-phospho-p70S6K-cryptate (Pho-p70S6-Kin-K cat#64CUSKAY, from Cisbio)) and anti GST-XL665 (1:1 Ratio with the substrate GST-S6K, anti GST-XL665, cat#61 GSTXLB) Cisbio) were added after the reaction was stopped. The plates were read (PHERAstar, BMG) at least 2 hours after adding the anti phospho p70-S6K and the anti GST-XL665.
Dose-response curves were plotted from the inhibition data generated, each in duplicate, from 8 point serial dilutions of inhibitory compounds. Concentration of compound was plotted against the HTRF em665/em590 ratio signal. To generate IC50 values, the dose-response curves were fitted to a standard sigmoidal curve and IC50 values were derived by nonlinear regression analysis.

[3] = system: phosphorylated AKT Ser473 (pAKT S473), mTORC2 activity, PC3 cells; test: mTOR target engagement assay, immunofluorescent cell-based, pAKT S473 readout (mTORC2 activity)
Summary of the method: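 After blocking, cells were stained overnight at 4 °C with anti-pAKT S473 antibody, then a fluorescent secondary; inhibition was read as reduced fluorescence intensity.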

[4] = Homo sapiens, PC-3, PC3 cells, read-out: p4E-BP1 Thr37/46 IC50
[5] = Table 3-1, PC3 cells, read-out: p4E-BP1 Thr37/46 IC50

Row | Compound | IC50 [2] | IC50 [1, 4] | IC50 ([3]; Homo sapiens, PC-3, PC3 cells) | also measured
1 | CC(=O)c1c([C@@H]2C[C@H]3CC[C@@H](C2)N3C(=O)c2nnc[nH]2)nc2c(-c3ccc(-c4nn(C)cc4F)nc3)cnn2c1N [Compound 1.1.93, 1-(5-((1R,3s,5S)-8-(4H-1,2,4-triazole-3-carbonyl)-8-azabicyclo[3.2.1]octan-3-yl)-7-amino-3-(6-(4-fluoro-1-methyl-1H-pyrazol-3-yl)pyridin-3-yl)pyrazolo[1,5-a]pyrimidin-6-yl)ethanone] | 0.0023 µM | – | – | IC50 ([1]; Homo sapiens, PC-3, PC3 cells, given as a number, no unit, read-out: p4E-1 Thr37/46 IC50): 3.88 µM; IC50 ([3]; Homo sapiens, PC-3, PC3 cells, given as a number, no unit): 4.07 µM
2 | CN1CCN(c2nnc(C(=O)N3C4CCC3CC(c3nc5c(-c6ccc(-c7ccccc7)nc6)cnn5c(N)c3C3CC3)C4)[nH]2)CC1 [Compound 8.102, ((1R,3s,5S)-3-(7-amino-6-cyclopropyl-3-(6-phenylpyridin-3-yl)pyrazolo[1,5-a]pyrimidin-5-yl)-8-azabicyclo[3.2.1]octan-8-yl)(5-(4-methylpiperazin-1-yl)-4H-1,2,4-triazol-3-yl)methanone] | – | 1 to 10 µM | 1 to 10 µM | –
3 | COc1nnc(C(=O)N2C3CCC2CC(c2nc4c(-c5ccc(-c6ccccc6)nc5)cnn4c(N)c2C2CC2)C3)[nH]1 [Compound 8.103, ((1R,3s,5S)-3-(7-amino-6-cyclopropyl-3-(6-phenylpyridin-3-yl)pyrazolo[1,5-a]pyrimidin-5-yl)-8-azabicyclo[3.2.1]octan-8-yl)(5-methoxy-4H-1,2,4-triazol-3-yl)methanone] | – | 0.1 to 1 µM | 0.1 to 1 µM | –
4 | Nc1nnc(C(=O)N2C3CCC2CC(c2nc4c(-c5ccc(-c6ccccc6)nc5)cnn4c(N)c2C2CC2)C3)[nH]1 [Compound 8.104, (5-amino-4H-1,2,4-triazol-3-yl)((1R,3s,5S)-3-(7-amino-6-cyclopropyl-3-(6-phenylpyridin-3-yl)pyrazolo[1,5-a]pyrimidin-5-yl)-8-azabicyclo[3.2.1]octan-8-yl)methanone] | – | 0.001 to 0.1 µM | 0.001 to 0.1 µM | –
5 | Nc1c(C2CC2)c(C2CC3CCC(C2)N3C(=O)c2nnc(N3CCOCC3)[nH]2)nc2c(-c3ccc(-c4ccccc4)nc3)cnn12 [Compound 8.105, ((1R,3s,5S)-3-(7-amino-6-cyclopropyl-3-(6-phenylpyridin-3-yl)pyrazolo[1,5-a]pyrimidin-5-yl)-8-azabicyclo[3.2.1]octan-8-yl)(5-morpholino-4H-1,2,4-triazol-3-yl)methanone] | – | 1 to 10 µM | 1 to 10 µM | –
6 | Nc1c(C2CC2)c(C2CC3CCC(C2)N3C(=O)c2nnc(O)[nH]2)nc2c(-c3ccc(-c4ccccc4)nc3)cnn12 [Compound 8.106, ((1R,3s,5S)-3-(7-amino-6-cyclopropyl-3-(6-phenylpyridin-3-yl)pyrazolo[1,5-a]pyrimidin-5-yl)-8-azabicyclo[3.2.1]octan-8-yl)(5-hydroxy-4H-1,2,4-triazol-3-yl)methanone] | – | 0.001 to 0.1 µM | 0.001 to 0.1 µM | –
7 | CC(=O)c1c(N2CC3CCC2CN3C(=O)[C@@H](C)O)nc2c(-c3ccc(-c4ccccc4)nc3)cnn2c1N (stereo partly shown) [Compound 47] | 0.01 to 0.025 µM | – | – | –
8 | CC(=O)c1c(N2CC3CCC2CN3C(=O)c2nnc[nH]2)nc2c(-c3ccc(-c4ccccc4)nc3)cnn2c1N (stereo not shown) [Compound 48] | 0.001 to 0.01 µM | – | – | –
9 | CC(=O)c1c(N2C3CCC2CN(C(=O)CO)C3)nc2c(-c3ccc(-c4ccccc4)nc3)cnn2c1N [Compound 49] | 0.001 to 0.01 µM | – | – | –
10 | CC(=O)c1c(N2C3CCC2CN(C(=O)[C@@H](C)O)C3)nc2c(-c3ccc(-c4ccccc4)nc3)cnn2c1N [Compound 50] | 0.01 to 0.025 µM | – | – | –
11 | Nc1c(F)c([C@@H]2C[C@H]3CC[C@@H](C2)N3C(=O)CO)nc2c(-c3ccc(-c4ncc[nH]4)nc3)cnn12 [Example 8A, 1-[(3-Exo)-3-{7-amino-6-fluoro-3-[6-(1H-imidazol-2-yl)pyridin-3-yl]pyrazolo[1,5-a]pyrimidin-5-yl}-8-azabicyclo[3.2.1]oct-8-yl]-2-hydroxyethanone] | 0.002 µM | – | – | –
12 | Nc1cc([C@@H]2C[C@H]3CC[C@@H](C2)N3)nc2c(-c3cc[nH]c(=O)c3)cnn12 [Example 8B, 4-{7-Amino-5-[(3-exo)-8-azabicyclo[3.2.1]oct-3-yl]pyrazolo[1,5-a]pyrimidin-3-yl}pyridin-2(1H)-one] | 0.489 µM | – | – | –
13 | (1R,3s,5S)-2-methoxyethyl 3-(6-acetyl-7-amino-3-(6-(1-methyl-1H-pyrazol-3-yl)pyridin-3-yl)pyrazolo[1,5-a]pyrimidin-5-yl)-8-azabicyclo[3.2.1]octane-8-carboxylate [Compound 1.1.109] | – | – | – | IC50 ([1]; PC3 cells, compound treatment ninety minutes at 37° C., read-out: p4E-BP1 Thr37/46 IC50): 1 to 10 µM; IC50 ([3]; PC3 cells, compound treatment ninety minutes at 37° C.): 1 to 10 µM
14 | ((1R,3s,5S)-3-(7-amino-3-(6-(1-methyl-(D3)-1H-pyrazol-3-yl)pyridin-3-yl)-6-(methylsulfonyl)pyrazolo[1,5-a]pyrimidin-5-yl)-8-azabicyclo[3.2.1]octan-8-yl)(4H-1,2,4-triazol-3-yl)methanone [Compound 3.70] | – | – | – | IC50 [1, 5]: 0.1 to 1 µM; IC50 ([3]; Table 3-1, PC3 cells): 0.1 to 1 µM
15 | ((1R,3s,5S)-3-(7-amino-6-(methylsulfonyl)-3-(6-(5-methylthiazol-2-yl)pyridin-3-yl)pyrazolo[1,5-a]pyrimidin-5-yl)-8-azabicyclo[3.2.1]octan-8-yl)(5-methyl-4H-1,2,4-triazol-3-yl)methanone [Compound 3.183] | – | – | – | IC50 [1, 5]: 0.1 to 1 µM; IC50 ([3]; Table 3-1, PC3 cells): 0.1 to 1 µM
